# Results: patent publication US6914045B2, “Glycopeptide antibiotics” (Wyeth Holdings Corporation, priority 2001, dated 2005)
# Legend:
# Assay in all cases: in vitro antibacterial evaluation, MIC by broth dilution
# Assay type in all cases: cell-based
# [1] = system: Staphylococcus sp.
# Method: (§1) Methods for in vitro Antibacterial Evaluation (Table 1)
# (§2) The minimum inhibitory concentration (MIC), the lowest concentration of the antibiotic which inhibits growth of the test organism, is determined by the broth dilution method using Muller-Hinton II […] (Baltimore Biological Laboratories) following the recommendations of the National Committee for Clinical Laboratory Standards [Methods for dilution antimicrobial susceptibility tests for bacteria that grow aerobically, approved standard M7-A2, National Committee for Clinical Laboratory Standards, Villanova, Pa.].
# (§3) An inoculum level of 5×10^5 CFU/mL, and a range of antibiotic concentrations (64-0.06 μg/mL) is used. […] The test organisms include a spectrum of Gram-positive bacteria comprised of Staphylococcus sp., Streptococcus sp. and Enterococcus sp. These organisms include recent clinical isolates that are resistant to methicillin, penicillin and/or vancomycin.
# [2] = system: Enterococcus sp.; details: broth dilution, 18 hours at 35° C.
# Method: as §1, §2, §3
# [3] = system: Escherichia coli; details: 18 hours at 35° C.
# Method: as §2, §3
# [4] = system: Streptococcus sp.; details: broth dilution, 18 hours at 35° C.
# Method: as §1, §2, §3
# [5] = broth dilution, 18 hours at 35° C.
# [6] = broth dilution, 18 hours at 35° C.; strain GC 4547
compound,measurement,setting,value
CC(c1ccccc1)C1NC(=O)CNC(=O)C(CO)NC(=O)C(C(O)C2CNC(=N)N2C2OC(CO)C(O)C(O)C2O)NC(=O)C(C(O)C2CNC(=N)N2)NC(=O)C(Cc2ccc(OC3OC(COC(=O)Cc4ccccc4)C(OC4OC(CO)C(O)C(O)C4O)C(O)C3O)cc2)NC1=O (centres unmarked) [Example 98b],MIC Coagulase Negative Staphylococcus (GC 4537),[1]; [5],16 µg/mL
same,MIC Coagulase Negative Staphylococcus (GC 4538),[1]; [5],8 µg/mL
same,MIC Coagulase Negative Staphylococcus (GC 4547),[1]; [5],8 µg/mL
same,MIC Coagulase Negative Staphylococcus (GC 4537),"[1]; broth dilution, 18 hours at 35° C.; strain GC 4537",16 µg/mL
same,MIC Coagulase Negative Staphylococcus (GC 4538),"[1]; broth dilution, 18 hours at 35° C.; strain GC 4538",8 µg/mL
same,MIC Coagulase Negative Staphylococcus (GC 4547),[1]; [6],8 µg/mL
same,MIC Staphylococcus aureus (ATCC 29213),"[1]; strain ATCC 29213; broth dilution, 18 hours at 35° C.",16 µg/mL
same,MIC Staphylococcus aureus (GC 1131),"[1]; strain GC 1131; broth dilution, 18 hours at 35° C.",16 µg/mL
same,MIC Staphylococcus aureus (GC 4535),"[1]; strain GC 4535; broth dilution, 18 hours at 35° C.",16 µg/mL
same,MIC Staphylococcus aureus-SMITH (GC 4536),"[1]; strain GC 4536; broth dilution, 18 hours at 35° C.",8 µg/mL
same,MIC Enterococcus faecalis (ATCC 29212),[2]; Enterococcus faecalis (ATCC 29212),64 µg/mL
same,MIC Enterococcus faecalis (GC 2242),[2]; Enterococcus faecalis (GC 2242),64 µg/mL
same,MIC Enterococcus faecalis (GC 4552),[2]; Enterococcus faecalis (GC 4552),128 µg/mL
same,MIC Enterococcus faecalis (ATCC 29212),[2],64 µg/mL
same,MIC Enterococcus faecalis (GC 2242),[2],64 µg/mL
same,MIC Enterococcus faecalis (GC 4552),[2],128 µg/mL
same,MIC Escherichia coli (GC 4559),[3],>128 µg/mL
same,MIC Escherichia coli (GC 4560),[3],2 µg/mL
CC(c1ccccc1)C1NC(=O)CNC(=O)C(CO)NC(=O)C(C(O)C2CNC(=N)N2C2OC(CO)C(O)C(O)C2O)NC(=O)C(C(O)C2CNC(=N)N2)NC(=O)C(Cc2ccc(OC3OC(CO)C(OC4OC(CO)C(OCC=C(c5ccccc5)c5ccccc5)C(O)C4O)C(O)C3O)cc2)NC1=O (centres unmarked) [Example 241a],MIC Coagulase Negative Staphylococcus (GC 4547),[1]; [5],4 µg/mL
same,MIC Coagulase Negative Staphylococcus (GC 4548),[1]; [5],2 µg/mL
same,MIC Coagulase Negative Staphylococcus (GC 4549),[1]; [5],1 µg/mL
same,MIC Coagulase Negative Staphylococcus (GC 4551),[1]; [5],4 µg/mL
same,MIC Coagulase Negative Staphylococcus (GC 6257),[1]; [5],1 µg/mL
same,MIC Staphylococcus aureus (ATCC 29213),[1]; [5],2 µg/mL
same,MIC Staphylococcus aureus (GC 1131),[1]; [5],2 µg/mL
same,MIC Staphylococcus aureus (GC 3051),[1]; [5],2 µg/mL
same,MIC Staphylococcus aureus (GC 3053),[1]; [5],2 µg/mL
same,MIC Staphylococcus aureus (GC 4541),[1]; [5],2 µg/mL
same,MIC Staphylococcus aureus (GC 4542),[1]; [5],2 µg/mL
same,MIC Staphylococcus aureus (GC 4544),[1]; [5],4 µg/mL
same,MIC Staphylococcus aureus (GC 4545),[1]; [5],2 µg/mL
same,MIC Staphylococcus aureus-SMITH (GC 4543),[1]; [5],2 µg/mL
same,MIC Staphylococcus haemolyticus (GC 4546),[1]; [5],2 µg/mL
same,MIC Staphylococcus aureus (ATCC 29213),"[1]; broth dilution, 18 hours at 35° C.; strain ATCC 29213",2 µg/mL
same,MIC Staphylococcus aureus (GC 1131),"[1]; broth dilution, 18 hours at 35° C.; strain GC 1131",2 µg/mL
same,MIC Staphylococcus aureus (GC 3051),"[1]; broth dilution, 18 hours at 35° C.; strain GC 3051",2 µg/mL
same,MIC Staphylococcus aureus (GC 3053),"[1]; broth dilution, 18 hours at 35° C.; strain GC 3053",2 µg/mL
same,MIC Staphylococcus aureus (GC 4541),"[1]; broth dilution, 18 hours at 35° C.; strain GC 4541",2 µg/mL
same,MIC Staphylococcus aureus (GC 4542),"[1]; broth dilution, 18 hours at 35° C.; strain GC 4542",2 µg/mL
same,MIC Staphylococcus aureus-SMITH (GC 4543),"[1]; broth dilution, 18 hours at 35° C.; strain GC 4543",2 µg/mL
same,MIC Staphylococcus aureus (GC 4544),"[1]; broth dilution, 18 hours at 35° C.; strain GC 4544",4 µg/mL
same,MIC Staphylococcus aureus (GC 4545),"[1]; broth dilution, 18 hours at 35° C.; strain GC 4545",2 µg/mL
same,MIC Staphylococcus haemolyticus (GC 4546),"[1]; broth dilution, 18 hours at 35° C.; strain GC 4546",2 µg/mL
same,MIC Coagulase Negative Staphylococcus (GC 4547),[1]; [6],4 µg/mL
same,MIC Coagulase Negative Staphylococcus (GC 4548),"[1]; broth dilution, 18 hours at 35° C.; strain GC 4548",2 µg/mL
same,MIC Coagulase Negative Staphylococcus (GC 4549),"[1]; broth dilution, 18 hours at 35° C.; strain GC 4549",1 µg/mL
same,MIC Coagulase Negative Staphylococcus (GC 4551),"[1]; broth dilution, 18 hours at 35° C.; strain GC 4551",4 µg/mL
same,MIC Coagulase Negative Staphylococcus (GC 6257),"[1]; broth dilution, 18 hours at 35° C.; strain GC 6257",1 µg/mL
same,MIC Streptococcus agalactiae (GC 4564),[4],<0.06 µg/mL
same,MIC Streptococcus pneumoniae (ATCC 6301),[4],<0.06 µg/mL
same,MIC Streptococcus pneumoniae (GC 1894),[4],<0.06 µg/mL
same,MIC Streptococcus pneumoniae (GC 4565),[4],<0.06 µg/mL
same,MIC Streptococcus pyogenes (GC 4563),[4],<0.06 µg/mL
same,MIC Streptococcus pneumoniae (ATCC 6301),"[4]; inoculum 5×10^5 CFU/mL, strain ATCC 6301",<0.06 µg/mL
same,MIC Streptococcus pneumoniae (GC 1894),"[4]; inoculum 5×10^5 CFU/mL, strain GC 1894",<0.06 µg/mL
same,MIC Streptococcus pyogenes (GC 4563),"[4]; inoculum 5×10^5 CFU/mL, strain GC 4563",<0.06 µg/mL
same,MIC Streptococcus agalactiae (GC 4564),"[4]; inoculum 5×10^5 CFU/mL, strain GC 4564",<0.06 µg/mL
same,MIC Streptococcus pneumoniae (GC 4565),"[4]; inoculum 5×10^5 CFU/mL, strain GC 4565",<0.06 µg/mL
same,MIC Enterococcus faecalis (GC 2242),[2],4 µg/mL
same,MIC Enterococcus faecalis (GC 2691),[2],2 µg/mL
same,MIC Enterococcus faecalis (GC 3059),[2],2 µg/mL
same,MIC Enterococcus faecalis (GC 4552),[2],4 µg/mL
same,MIC Enterococcus faecalis (ATCC 29212),[2]; strain ATCC 29212,4 µg/mL
same,MIC Enterococcus faecium (GC 2243),[2]; strain GC 2243,2 µg/mL
same,MIC Enterococcus faecalis (GC 4552),[2]; strain GC 4552,4 µg/mL
same,MIC Enterococcus faecalis (GC 4553),[2]; strain GC 4553,4 µg/mL
same,MIC Enterococcus faecalis (GC 4554),[2]; strain GC 4554,4 µg/mL
same,MIC Enterococcus faecium (GC 4556),[2]; strain GC 4556,2 µg/mL
same,MIC Enterococcus faecium (GC 4557),[2]; strain GC 4557,2 µg/mL
same,MIC Enterococcus avium (GC 4558),[2]; strain GC 4558,2 µg/mL
same,MIC Enterococcus faecalis (GC 6189),[2]; strain GC 6189,2 µg/mL
same,MIC Enterococcus faecalis (GC 2242),"[2]; inoculum 5×10^5 CFU/mL, strain GC 2242",4 µg/mL
same,MIC Enterococcus faecalis (GC 2691),"[2]; inoculum 5×10^5 CFU/mL, strain GC 2691",2 µg/mL
same,MIC Enterococcus faecalis (GC 3059),"[2]; inoculum 5×10^5 CFU/mL, strain GC 3059",2 µg/mL
